Test results taken from ChEMBL document CHEMBL1201862, “PubChem BioAssay data set” (2004).
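How tested: cells in 96-well plates exposed to compound for 48 hours at five concentrations. GI50 is the concentration that inhibits growth by half.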 Activity calls are given as the source filed them. Rule as the data show it: active = GI50 up to about 1.1 µM and inactive = higher.

How the values were obtained:
Assay in all cases: NCI tumour cell line growth inhibition, 48 h
OVCAR-8 = test system: OVCAR-8
T47D = test system: T47D
K562 = test system: K562
SW-620 = test system: SW-620
MDA-MB-435 = test system: MDA-MB-435
OVCAR-5 = test system: OVCAR-5
MDA-N = test system: MDA-N
OVCAR-4 = test system: OVCAR-4
Hs-578T = test system: Hs-578T
HCT-15 = test system: HCT-15
UO-31 = test system: UO-31
MOLT-4 = test system: MOLT-4
M14 = test system: M14
PC-3 = test system: PC-3
NCI-H23 = test system: NCI-H23
KM12 = test system: KM12
BT-549 = test system: BT-549
DMS-114 = test system: DMS-114
DMS-273 = test system: DMS-273

SMILES | GI50 (OVCAR-8) | GI50 (T47D) | GI50 (K562) | GI50 (SW-620) | GI50 (MDA-MB-435) | GI50 (OVCAR-5) | GI50 (MDA-N) | GI50 (OVCAR-4) | GI50 (Hs-578T) | GI50 (HCT-15) [µM] | GI50 (UO-31) | GI50 (MOLT-4) | GI50 (M14) | GI50 (PC-3) | GI50 (NCI-H23) | GI50 (KM12) | GI50 (BT-549) | GI50 (DMS-114) | GI50 (DMS-273)
O=C1c2ccccc2-c2nnc(-c3ccc(Cl)cc3)cc21 | > 10 µM (inactive) | > 10 µM (inactive) | > 10 µM (inactive) | > 10 µM (inactive) | > 10 µM (inactive) | > 10 µM (inactive) | > 10 µM (inactive) | > 10 µM (inactive) | > 10 µM (inactive) | > 10 | > 10 µM (inactive) | > 10 µM (inactive) | > 10 µM (inactive) | > 10 µM (inactive) | > 10 µM (inactive) | > 10 µM (inactive) | > 10 µM (inactive) |  | 
Cc1cc(N(CCC#N)CCC#N)ccc1/C=C1\SC(=S)NC1=O | 49.3 µM (inactive) | 66.7 µM (inactive) | 40 µM (inactive) | > 100 µM (inactive) | 82.2 µM (inactive) | 34.9 µM (inactive) | > 100 µM (inactive) | > 100 µM (inactive) | 14.2 µM (inactive) | > 100 | 99.8 µM (inactive) | 91 µM (inactive) | 40.3 µM (inactive) | 36.8 µM (inactive) | > 100 µM (inactive) | 62.2 µM (inactive) | 37.2 µM (inactive) |  | 
Cn1c(=O)c2c(nc3n2C(CCl)CO3)n(C)c1=O (stereo not drawn) | > 100 µM (inactive) |  | > 100 µM (inactive) | > 100 µM (inactive) |  | > 100 µM (inactive) |  | > 100 µM (inactive) |  | > 100 | > 100 µM (inactive) | > 100 µM (inactive) | > 100 µM (inactive) |  | > 100 µM (inactive) | > 100 µM (inactive) |  | > 100 µM (inactive) | > 100 µM (inactive)
CC(C)(C)c1ccc(OCCOCCOc2ccc(C(C)(C)C)cc2S(N)(=O)=O)c(S(N)(=O)=O)c1 | > 100 µM (inactive) |  | > 100 µM (inactive) | > 100 µM (inactive) |  | > 100 µM (inactive) |  | > 100 µM (inactive) |  | 45.6 | 5.85 µM (inactive) | 4.46 µM (inactive) | 61.4 µM (inactive) |  | > 100 µM (inactive) | 52.1 µM (inactive) |  | 16.9 µM (inactive) | 72.6 µM (inactive)
COc1ccc(OC)c(C2CCc3nc4nc(N)nc(N)c4cc3C2)c1 (stereo not drawn) | 2.47 µM (inactive) | 1.94 µM (inactive) | 2.31 µM (inactive) | 2.86 µM (inactive) | 2.04 µM (inactive) | 9.35 µM (inactive) | 2.13 µM (inactive) | 2.07 µM (inactive) | 3.75 µM (inactive) | 14.1 | 3.25 µM (inactive) | 2.12 µM (inactive) | 1.8 µM (inactive) | 3.56 µM (inactive) | 18.5 µM (inactive) | 2.29 µM (inactive) | 6.9 µM (inactive) |  | 
CO[C@@H]1C[C@H]2[C@@H]3CC[C@H]([C@H](C)CO)[C@@]3(C)CC[C@@H]2[C@@]2(C)CC[C@H]3C[C@]312 | 49 µM (inactive) | 24.8 µM (inactive) | 26 µM (inactive) | 70.3 µM (inactive) | 37.8 µM (inactive) | > 100 µM (inactive) | 39.8 µM (inactive) | 55.8 µM (inactive) | 43.4 µM (inactive) | 34 | 53.1 µM (inactive) | 32.5 µM (inactive) | 32.4 µM (inactive) | 27.6 µM (inactive) | 55.7 µM (inactive) | 15.9 µM (inactive) | 13.3 µM (inactive) |  | 
CSc1nc2c(ncn2C2OC(CO)C(O)C(O)C2O)c(=O)n1C (stereo not drawn) | > 100 µM (inactive) |  | > 100 µM (inactive) | > 100 µM (inactive) |  | > 100 µM (inactive) |  | > 100 µM (inactive) |  | > 100 | > 100 µM (inactive) | > 100 µM (inactive) |  |  | > 100 µM (inactive) | > 100 µM (inactive) |  | > 100 µM (inactive) | > 100 µM (inactive)
O=c1n(C2CCCCC2)c(=C(Cl)Cl)c(=C(Cl)Cl)n1C1CCCCC1 | > 100 µM (inactive) |  | > 100 µM (inactive) | > 100 µM (inactive) |  | > 100 µM (inactive) |  | > 100 µM (inactive) |  | > 100 | > 100 µM (inactive) | > 100 µM (inactive) |  |  | > 100 µM (inactive) | > 100 µM (inactive) |  | 53.1 µM (inactive) | > 100 µM (inactive)
c1csc(-c2ccsc2-c2ccsc2)c1 | 91.2 µM (inactive) | > 100 µM (inactive) | 73.8 µM (inactive) | > 100 µM (inactive) | 39.3 µM (inactive) | > 100 µM (inactive) | 73.1 µM (inactive) | 84.1 µM (inactive) | 90.2 µM (inactive) | 39.8 | 80 µM (inactive) | 28.4 µM (inactive) | > 100 µM (inactive) | 41.3 µM (inactive) | 43.5 µM (inactive) | 48.4 µM (inactive) | > 100 µM (inactive) |  | 
CO[C@H]1C=CO[C@@]2(C)Oc3c(C)c(O)c4c(O)c(c(CN5CCN(C)CC5)c(O)c4c3C2=O)NC(=O)/C(C)=C\C=C[C@H](C)[C@H](O)C(C)[C@@H](O)C(C)[C@H](OC(C)=O)[C@@H]1C (stereo partly drawn) | 20 µM (inactive) | 26.7 µM (inactive) | 20.9 µM (inactive) | 13.1 µM (inactive) | 27.5 µM (inactive) | > 100 µM (inactive) | 44.3 µM (inactive) | 27.5 µM (inactive) | > 100 µM (inactive) | 30.8 | 33.7 µM (inactive) | 5.87 µM (inactive) | 24.2 µM (inactive) | 17 µM (inactive) | 14.6 µM (inactive) | 45.6 µM (inactive) | 45.9 µM (inactive) |  | 
Cc1cc(O)cc(O)c1/N=N/c1ccc([N+](=O)[O-])cc1 | 17.9 µM (inactive) | 9.14 µM (inactive) | 3.27 µM (inactive) | 5.96 µM (inactive) | 13.8 µM (inactive) | 27.7 µM (inactive) | 15.6 µM (inactive) | 9.64 µM (inactive) | 27.5 µM (inactive) | 6.87 | 25 µM (inactive) | 5.3 µM (inactive) | 22.5 µM (inactive) | 16 µM (inactive) | 17.7 µM (inactive) | 22.6 µM (inactive) | 15 µM (inactive) |  | 
Cc1ccc(S(=O)(=O)NC(C(=O)O)C(C)C)cc1 (stereo not drawn) | > 100 µM (inactive) | > 100 µM (inactive) | > 100 µM (inactive) | > 100 µM (inactive) | > 100 µM (inactive) | > 100 µM (inactive) | > 100 µM (inactive) | > 100 µM (inactive) | > 100 µM (inactive) | > 100 | > 100 µM (inactive) | > 100 µM (inactive) | > 100 µM (inactive) | > 100 µM (inactive) | > 100 µM (inactive) | > 100 µM (inactive) | > 100 µM (inactive) |  | 
Cn1c(SCc2c[nH]c3ccccc23)nnc1-c1ccc(Cl)cc1Cl | 21.2 µM (inactive) | 12.7 µM (inactive) | 4.23 µM (inactive) | 19.5 µM (inactive) | 3 µM (inactive) | 22.8 µM (inactive) | 4.44 µM (inactive) | 12.4 µM (inactive) | 19.7 µM (inactive) | 12.1 | 18 µM (inactive) | 7.36 µM (inactive) | 11.4 µM (inactive) | 12.1 µM (inactive) | 23.8 µM (inactive) | 9.82 µM (inactive) | 18.3 µM (inactive) |  | 
O=NN1C(c2ccccc2)C2CCCC(C2=O)C1c1ccccc1 (stereo not drawn) | 37.7 µM (inactive) |  | 21.1 µM (inactive) | 43.9 µM (inactive) |  | 37.2 µM (inactive) |  | 23.9 µM (inactive) |  | 29.3 | 22.9 µM (inactive) | 27.1 µM (inactive) |  |  | 19.7 µM (inactive) | 32.5 µM (inactive) |  | 32.5 µM (inactive) | 23.8 µM (inactive)
O=[N+]([O-])c1ccc(/C=C/c2ccc(/N=N/c3ccc(/C=C/c4ccc([N+](=O)[O-])cc4S(=O)(=O)O)c(S(=O)(=O)O)c3)cc2S(=O)(=O)O)c(S(=O)(=O)O)c1 | > 100 µM (inactive) |  | > 100 µM (inactive) | > 100 µM (inactive) |  | > 100 µM (inactive) |  | > 56.8 µM (inactive) |  | > 63.7 | > 100 µM (inactive) | > 100 µM (inactive) |  |  | > 100 µM (inactive) | > 100 µM (inactive) |  | > 100 µM (inactive) | > 71 µM (inactive)
CCCC1CCC(=C2C(=O)CCC2=O)O1 (stereo not drawn) | > 100 µM (inactive) | > 100 µM (inactive) | > 100 µM (inactive) | > 100 µM (inactive) | > 100 µM (inactive) | > 100 µM (inactive) | > 100 µM (inactive) | > 100 µM (inactive) | > 100 µM (inactive) | > 100 | > 100 µM (inactive) | 0.849 µM (active) | > 100 µM (inactive) | > 100 µM (inactive) | > 100 µM (inactive) | > 100 µM (inactive) | > 100 µM (inactive) |  | 
Oc1ccc2ccccc2c1Cc1c(O)ccc2ccccc12 | 15.6 µM (inactive) | 20.3 µM (inactive) | 8.83 µM (inactive) | 16 µM (inactive) | 11 µM (inactive) | 15.6 µM (inactive) | 11.6 µM (inactive) | 13.1 µM (inactive) | 14.2 µM (inactive) | 14.8 | 15 µM (inactive) | 15 µM (inactive) | 16.7 µM (inactive) | 17.5 µM (inactive) | 16.1 µM (inactive) | 18.2 µM (inactive) | 16.9 µM (inactive) |  | 
Nc1nc2[nH]c(=O)cnc2c(=O)[nH]1 [ISOXANTHOPTERIN] | > 125 µM (inactive) |  | > 125 µM (inactive) | > 125 µM (inactive) |  | > 99.1 µM (inactive) |  | > 125 µM (inactive) |  | > 78.9 | > 125 µM (inactive) | > 125 µM (inactive) |  |  | > 125 µM (inactive) | > 125 µM (inactive) |  | > 125 µM (inactive) | > 125 µM (inactive)
